Laboratory results reported in patent US6548543B1, “Remedies or preventives containing cyclopentenone compounds as the active ingredient” (Takara Shuzo Co., Ltd., priority 1998, dated 2003).

Columns and labels:
topoisomerase II = biological target: T1, topoisomerase II (Homo sapiens, UniProt P11388); assay: Topoisomerase II inhibition, pBR322 DNA relaxation; assay type: biochemical; conditions: 37° C., 30 minutes
T1 construct: purchased TopoGEN
Protocol: (1) 2 μl of topoisomerase II (TopoGEN; 2 units/μl), 2 μl of 10-fold concentrated buffer [0.5 M Tris-HCl (pH 8.0), 1.2 M KCl, 0.1 M MgCl2, 2.5 mM adenosine triphosphate, 5 mM dithiothreitol], 2 μl of 0.1% bovine serum albumin (Takara Shuzo), 11 μl of distilled water and 2 μl of distilled water (control) or 2 μl of one of aqueous solutions of dipropionylcyclopentenone, diisobutyrylcyclopentenone, dibenzoylcyclopentenone, dihexanoylcyclopentenone, di-2-hexenoylcyclopentenone, dimethoxyacetylcyclopentenone, dimethylfumarylcyclopentenone or dimethylmaleylcyclopentenone at varying concentrations were mixed together. 1 μl of 0.25 μg/μl pBR322 DNA (Takara Shuzo) was added thereto. The resulting mixture was reacted at 37° C. After reacting for 30 minutes, 2 μl of an aqueous solution containing 1% sodium dodecyl sulfate, 50% glycerol and 0.02% Bromophenol Blue was added thereto to stop the reaction.
20 μl of the reaction mixture was applied to 1% agarose gel prepared using agarose L03 (Takara Shuzo) and TAE buffer [40 mM Tris, 5 mM sodium acetate, 1 mm ethylenediaminetetraacetic acid disodium salt (EDTA); adjusted to pH 7.8 using acetic acid] and electrophoresed in TAE buffer. After electrophoresis, the gel was soaked in a 1 μg/ml aqueous ethidium bromide solution. The gel was exposed to ultraviolet rays to visualize the electophoretic pattern of DNA.

[1] = test system: 70-kDa heat shock protein; assay: Induction of 70-kDa heat shock protein in HL-60 cells (Western blot); assay type: cell-based; parameters: key to Degree of induction of 70-kDa heat shock protein: − means that no induction was observed; ± means that a slight induction was observed; + represents the induction level; ++: Increased number of + means increased induction; +++: Increased number of + means increased induction; conditions: HL-60, 6 hours
Protocol: (1) 5 ml of RPMI 1640 medium containing 10% fetal calf serum and HL-60 (ATCC CCL-240) cells at a concentration of 2×10^5 cells/ml was placed in each well of a 6-well plate. The plate was incubated at 37° C. for 24 hours in the presence of 5% CO2. Dipropionylcyclopentenone, diisobutyrylcyclopentenone or di-2-hexenoylcyclopentenone at a final concentration of 0, 0.63, 1.3, 2.5, 5, 10 or 20 μM was then added thereto. The incubation was continued for additional 6 hours.
After incubation, the cell number was counted. The cells were harvested by centrifugation, washed with PBS to prepare cells treated with one of the samples. Cells that were cultured in the same manner after heated at 45° C. for 10 minutes were also prepared.
These treated cells were used for SDS-PAGE according to the method as described in Molecular Cloning [Cold Spring Harbor Laboratory Press (1989)]. The treated cells were suspended in SDS-PAGE Sample buffer at a concentration of 2.5×10^6 cells/ml. The cell suspensions were treated at 100° C. for 10 minutes. 5 μl each of the cell suspensions was applied to two SDS-PAGE gels (5% stacking gel, 10% separation gel) and electrophoresed. One of the gels was subjected to Coomassie staining. The other gel was blotted onto a polyvinylidene difluoride transfer membrane (Immobilon™, Millipore, Cat. #IPVH000-10). The membrane was blocked at 4° C. overnight using Block Ace (Dainippon Pharmaceutical, Cat. #UK-B25).
The blocked membrane was reacted with a monoclonal antibody HSP72/73(Ab-1) (Oncogene Research Products, Cat. #HSP01), which specifically reacts with heat-inducible 70-kDa heat shock protein. The membrane was washed with TBS containing 0.05% Tween 20 followed by TBS. The membrane was then reacted with a peroxidase-conjugated secondary antibody HRP-Rabbit Anti-Mouse IgG (H+L) (Zymed Laboratories, Inc., Cat. #61-6520), and then washed as described above. The membrane reacted with the primary and secondary antibodies was reacted with a chemiluminol reagent Renaissance™ (Dupont NEN, Cat. #NEL-100). The membrane was then exposed to an X-ray film to confirm the induction of 70-kDa heat shock protein.

Meth A tumor cells = assay: Survival of mice given Meth A tumor cells, single dose; assay type: in vivo, BALB/c mouse; conditions: single dose 10 mg/kg intraperitoneal
Protocol: (1) Mouse leukemia P-388 (1.1×10^6 cells/mouse) was intraperitoneally administered to a 7-weeks old female DBA/2 mouse. Immediately after the administration, a single dose of 10 mg/kg dipropionylcyclopentenone was intraperitoneally administered. On the other hand, saline was intraperitoneally administered to a control group in a similar manner. Survival number of mice, average days of survival and prolongation rate were calculated for 2 groups each consisting of 8 mice.
Similarly, examination was carried out using a system of Meth A tumor cells: BALB/c mouse. As a result, the average days of survival were 13.4 days for the control group. The average days of survival were 16.9 days for the group administered with dipropionylcyclopentenone.

Mouse solid tumor Meth A = assay: Mouse solid tumor Meth A, weight of cancer; assay type: in vivo, BALB/c mouse; conditions: subcutaneous at tumor site for successive 5 days, after 2 weeks
Protocol: (2) Mouse solid tumor Meth A (2×10^6 cells/mouse) was subcutaneously injected into a back of a 8-weeks old female BALB/c mouse. Subsequently, dipropionylcyclopentenone was subcutaneously injected at the same site for successive 5 days. Saline was subcutaneously injected to a control group in a similar manner. Each group consisted of 8 mice.
After 2 weeks, the cancerous tissue formed in the back of the mouse was taken out and the weight of the tissue was measured.

[2] = test system: Ehrlich ascites carcinoma (EAC); assay: Ascitic cancer EAC, prolongation of survival; assay type: in vivo, ddY mouse; conditions: 5 successive days; for 30-day survival number: groups of 8 mice
Protocol: (§1) (3) The carcinostatic activities of dipropionylcyclopentenone and diisobutyrylcyclopentenone against various ascitic cancers were examined using two types of cancer cells, Ehrlich ascites carcinoma (EAC) and Meth A, administered intraperitoneally or orally at a varying dose.
(§2) Dipropionylcyclopentenone or diisobutyrylcyclopentenone was intraperitoneally or orally administered for 5 successive days from the day after the transplantation with cancer cells. Injectable distilled water was administered to a control group in a similar manner. Average days of survival, prolongation rate and 30-day survival number were calculated for groups each consisting of 8 mice.

Meth A = assay: Ascitic cancer Meth A, prolongation of survival, 5 successive days; assay type: in vivo, BALB/c mouse; conditions: for 30-day survival number: groups of 8 mice
Protocol: as §1, §2

T1 sequence (P11388 whole entry): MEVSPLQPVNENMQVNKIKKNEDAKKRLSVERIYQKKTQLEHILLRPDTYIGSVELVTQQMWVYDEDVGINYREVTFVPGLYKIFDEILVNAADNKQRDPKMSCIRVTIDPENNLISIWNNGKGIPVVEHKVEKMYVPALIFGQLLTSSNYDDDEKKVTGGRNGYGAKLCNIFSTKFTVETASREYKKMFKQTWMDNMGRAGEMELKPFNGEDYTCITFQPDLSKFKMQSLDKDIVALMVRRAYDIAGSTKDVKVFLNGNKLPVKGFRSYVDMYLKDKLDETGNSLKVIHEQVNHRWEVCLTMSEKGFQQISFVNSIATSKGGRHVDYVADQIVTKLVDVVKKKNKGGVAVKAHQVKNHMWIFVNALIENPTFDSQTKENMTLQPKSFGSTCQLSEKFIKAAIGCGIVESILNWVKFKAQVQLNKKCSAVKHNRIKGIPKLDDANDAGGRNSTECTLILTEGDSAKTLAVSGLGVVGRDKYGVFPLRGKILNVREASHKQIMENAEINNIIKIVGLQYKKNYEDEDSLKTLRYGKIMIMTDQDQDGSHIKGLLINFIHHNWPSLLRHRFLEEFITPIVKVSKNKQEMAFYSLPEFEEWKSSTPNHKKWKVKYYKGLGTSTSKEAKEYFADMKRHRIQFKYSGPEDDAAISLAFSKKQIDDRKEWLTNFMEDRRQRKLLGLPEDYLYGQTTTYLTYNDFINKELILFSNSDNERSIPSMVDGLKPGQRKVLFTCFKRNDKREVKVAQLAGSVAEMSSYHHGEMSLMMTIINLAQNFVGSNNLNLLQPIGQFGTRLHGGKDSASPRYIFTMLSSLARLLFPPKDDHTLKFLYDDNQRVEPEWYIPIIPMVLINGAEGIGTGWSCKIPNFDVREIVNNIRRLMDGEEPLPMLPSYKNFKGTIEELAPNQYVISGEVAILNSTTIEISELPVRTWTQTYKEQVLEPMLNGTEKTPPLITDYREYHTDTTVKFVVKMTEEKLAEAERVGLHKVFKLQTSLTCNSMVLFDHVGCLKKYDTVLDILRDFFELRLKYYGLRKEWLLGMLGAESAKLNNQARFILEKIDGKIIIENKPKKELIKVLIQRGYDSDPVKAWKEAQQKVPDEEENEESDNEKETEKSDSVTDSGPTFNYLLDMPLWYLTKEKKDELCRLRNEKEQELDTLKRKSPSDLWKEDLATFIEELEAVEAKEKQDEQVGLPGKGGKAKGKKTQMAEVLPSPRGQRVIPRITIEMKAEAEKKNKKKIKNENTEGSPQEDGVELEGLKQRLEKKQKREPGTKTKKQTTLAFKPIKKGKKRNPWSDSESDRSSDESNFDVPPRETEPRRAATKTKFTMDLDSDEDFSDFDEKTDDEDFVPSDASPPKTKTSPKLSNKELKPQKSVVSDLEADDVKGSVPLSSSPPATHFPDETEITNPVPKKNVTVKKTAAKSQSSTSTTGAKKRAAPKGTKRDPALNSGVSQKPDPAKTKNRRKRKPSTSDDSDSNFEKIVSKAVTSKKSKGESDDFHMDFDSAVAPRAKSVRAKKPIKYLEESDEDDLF

With `CCC(=O)OC1C=CC(=O)C1OC(=O)CC` (stereo not shown) the “Concentration at which change of DNA from superhelical type to relaxed type was partially or completely inhibited” value (topoisomerase II) was no less than 0.1 µM, the “Degree of induction of 70-kDa heat shock protein” value (shortened to “Degree”) ([1]; 0.63 μM) was “−” and the “Degree” value ([1]; 1.3 μM) was “±”. The “Degree” value ([1]; 2.5 μM) was “+”, the “Degree” value ([1]; 5 μM) was “+++” and the “Degree” value ([1]; 10 μM) was “++”. For the same compound, the “Degree” value ([1]; 20 μM) was “++”, the “Average days of survival” value (Meth A tumor cells) was 16.9 days and the Prolongation rate (Meth A tumor cells) was 126.2%. The Inhibition rate (Mouse solid tumor Meth A) was 92.3%, the “Mice in which no cancerous tissue was formed” value (Mouse solid tumor Meth A) was 5 out of 8 and the “Weight of cancer mean ± SE” value (Mouse solid tumor Meth A) was 0.05 ± 0.08 g. The “Weight of cancer mean ± SE” value (Mouse solid tumor Meth A; listed as dipropionylcyclopentenone) was 0.05 g, the “Average days of survival” value ([2]; intraperitoneal 10 mg/kg) was 28.1 days and the Prolongation rate ([2]; intraperitoneal 10 mg/kg) was greater than 225%. For the same compound, the 30-day survival number ([2]; intraperitoneal 10 mg/kg) was 6, the “Average days of survival” value ([2]; oral 30 mg/kg) was 24.1 days and the Prolongation rate ([2]; oral 30 mg/kg) was greater than 193%. The 30-day survival number ([2]; oral 30 mg/kg) was 4, the “Average days of survival” value (Meth A; intraperitoneal 10 mg/kg) was 20.5 days and the Prolongation rate (Meth A; intraperitoneal 10 mg/kg) was 174%. The 30-day survival number (Meth A; intraperitoneal 10 mg/kg) was 0, the “Average days of survival” value (Meth A; oral 30 mg/kg) was 17.3 days and the Prolongation rate (Meth A; oral 30 mg/kg) was greater than 147%. For the same compound, the 30-day survival number (Meth A; oral 30 mg/kg) was 2.
